Test results: patent US12090184B2, “Traditional Chinese medicine composition for treating dermatophytosis and bromhidrosis and application thereof” (JINGCHU UNIVERSITY OF TECHNOLOGY, priority 2019, dated 2024)

What was measured:
Assay type in all cases: cell-based
[1] = test system: Candida albicans ATCC90028; test: in vitro anti-fungal test, 80% MIC (CLSI M-27A3)
From the text: (§1) 1. The present disclosure conducts an in vitro anti-fungal test on the composition extracts in Examples 1 to 3, and the single radix sophorae flavescentis alkaloid and single peristrophe japonica extracts prepared in Example 3. The cell strains used in the test are all ATCC standard strains provided by the Fungi Center of the Medical Microbial (Virus) Species Collection and Management Center of the Ministry of Health, which includes as follows, Aspergillus: Aspergillus fumigatus Strain Number: CMCCC(F) A1g (ATCC-MYA-3626); Candida: Candida albicans Strain Number: CMCCC (F) C.1L (ATCC90028); Trichophyton: Trichophyton rubrum Strain Number: CMCCC(F)T.1h (ATCC-MYA-4438); Trichophyton mentagrophytes Strain Number: CMCCC(F)T.5e (ATCC-MYA-4439).
2. […]
(§2) Before the experiment, after activating the experimental bacteria, yeast are cultured on Sabouraud Dextrose Agar(SDA) medium at 30° C. for 48 hours; filamentous fungi are cultured on potato dextrose agar (PDA) medium at 26° C. for 7 days to 10 days. A suspension is prepared with sterile normal saline, the suspension is counted by a hemocytometer, and is dilute with RMPI-1640 liquid medium containing 2% glucose in multiple amounts to Candida albicans 1.0×10^3 cfu/mL; the other three filamentous fungi are prepared into 2.5×10^4 cfu/mL. […]

[2] = test system: Trichophyton mentagrophytes ATCC-MYA-4439; test: in vitro anti-fungal test, 80% MIC (CLSI M-38P)
From the text: as §1
(§3) 2. The specific experimental methods are carried out with reference to the standard methods of yeast M-27A3 and filamentous fungi M-38P issued by the Clinical and Laboratory Standards Institute (US, CLSI) of the United States.
as §2, with “cfu/mL. 0.1 mL of bacterial solutions are taken respectively, the culture medium containing the compositions prepared in Examples 1 to 3 and the same doses of the radix sophorae flavescentis alkaloids and the peristrophe japonica extracts prepared in Example 3 are added into each well, wherein the well 11 is a vehicle control, the well 12 is a medium control. 0.1 mL of the diluted solvent is added into the vehicle control well, and 0.1 mL of the distilled water is added into the control well.” for “cfu/mL.”

[3] = test system: Trichophyton rubrum ATCC-MYA-4438; test: in vitro anti-fungal test, 80% MIC (CLSI M-38P)
From the text: as §1, §3
as §2, with “cfu/mL. 0.1 mL of bacterial solutions are taken respectively, the culture medium containing the compositions prepared in Examples 1 to 3 and the same doses of the radix sophorae flavescentis alkaloids and the peristrophe japonica extracts prepared in Example 3 are added into each well, wherein the well 11 is a vehicle control, the well 12 is a medium control. 0.1 mL of the diluted solvent is added into the vehicle control well, and 0.1 mL of the distilled water is added into the control well.” for “cfu/mL.”

[4] = test system: Aspergillus fumigatus ATCC-MYA-3626; test: in vitro anti-fungal test, 80% MIC (CLSI M-38P)
From the text: as §1, §3
as §2, with “cfu/mL. 0.1 mL of bacterial solutions are taken respectively, the culture medium containing the compositions prepared in Examples 1 to 3 and the same doses of the radix sophorae flavescentis alkaloids and the peristrophe japonica extracts prepared in Example 3 are added into each well, wherein the well 11 is a vehicle control, the well 12 is a medium control. 0.1 mL of the diluted solvent is added into the vehicle control well, and 0.1 mL of the distilled water is added into the control well.” for “cfu/mL.”

80% MIC [1]: 3.8 | 80% MIC [2]: 5.8 | 80% MIC [3]: 5.6 | 80% MIC [4]: 4.2
Structure (SMILES): CCC(C)n1ncn(-c2ccc(N3CCN(c4ccc(OCC5COC(Cn6cncn6)(c6ccc(Cl)cc6Cl)O5)cc4)CC3)cc2)c1=O (stereo not shown) [Itraconazole]
